Among the data in ChEMBL document CHEMBL2177025, “Chemical proteomics-based analysis of off-target binding profiles for rosiglitazone and pioglitazone: clues for assessing potential for cardiotoxicity” (J Med Chem, 2012) are Activity and fold change (FC) values, retold here.

Activity calls are given as the source filed them. The rule behind the calls is not given here.

The target in test [1] is Hemopexin (Rattus norvegicus) (UniProt P20059). Kind of test: Binding affinity to hemopexin precursor in Sprague-Dawley rat heart homogenate after 15 mins by chromatographic analysis. The class given is tissue-based.
The target in test [2] is 26S proteasome non-ATPase regulatory subunit 1 (Rattus norvegicus) (UniProt O88761). Kind of test: Binding affinity to 26S proteasome non-ATPase regulatory subunit 1 in Sprague-Dawley rat heart homogenate after 15 mins by chromatographic analysis. The class given is tissue-based.
Chain of 26S proteasome non-ATPase regulatory subunit 1 (Rattus norvegicus) (O88761 whole entry): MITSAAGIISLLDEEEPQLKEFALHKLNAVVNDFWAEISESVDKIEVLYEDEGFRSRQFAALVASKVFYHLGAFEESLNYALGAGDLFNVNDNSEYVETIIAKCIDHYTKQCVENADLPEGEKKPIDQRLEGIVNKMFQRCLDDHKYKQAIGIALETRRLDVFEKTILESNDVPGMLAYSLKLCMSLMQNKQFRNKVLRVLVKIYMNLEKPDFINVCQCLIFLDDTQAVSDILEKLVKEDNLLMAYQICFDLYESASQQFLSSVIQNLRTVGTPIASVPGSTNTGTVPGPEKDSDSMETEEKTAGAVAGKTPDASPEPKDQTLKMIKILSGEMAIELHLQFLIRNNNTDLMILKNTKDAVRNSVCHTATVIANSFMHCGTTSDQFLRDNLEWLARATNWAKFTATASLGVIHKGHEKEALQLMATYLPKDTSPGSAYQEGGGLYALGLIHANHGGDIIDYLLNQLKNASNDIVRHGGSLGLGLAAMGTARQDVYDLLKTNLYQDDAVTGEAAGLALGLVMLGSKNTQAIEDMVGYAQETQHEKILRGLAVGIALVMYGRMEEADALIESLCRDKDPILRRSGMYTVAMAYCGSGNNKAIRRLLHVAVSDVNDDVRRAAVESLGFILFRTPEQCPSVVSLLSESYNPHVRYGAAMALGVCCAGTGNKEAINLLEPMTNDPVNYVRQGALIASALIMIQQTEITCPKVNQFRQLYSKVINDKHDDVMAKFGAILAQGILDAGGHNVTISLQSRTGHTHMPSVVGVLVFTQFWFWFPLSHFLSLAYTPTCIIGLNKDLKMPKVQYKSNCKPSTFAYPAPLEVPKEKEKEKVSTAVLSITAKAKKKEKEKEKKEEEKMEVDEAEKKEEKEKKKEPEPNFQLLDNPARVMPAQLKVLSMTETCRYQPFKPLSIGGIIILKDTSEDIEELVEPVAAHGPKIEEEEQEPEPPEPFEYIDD
Test [3] deals with Voltage-dependent L-type calcium channel subunit alpha-1F (Mus musculus) (UniProt Q9JIS7). Kind of test: Binding affinity to mouse voltage-dependent L-type calcium channel alpha-1F subunit by chromatographic analysis.
Chain of Voltage-dependent L-type calcium channel subunit alpha-1F (Mus musculus) (Q9JIS7 whole entry): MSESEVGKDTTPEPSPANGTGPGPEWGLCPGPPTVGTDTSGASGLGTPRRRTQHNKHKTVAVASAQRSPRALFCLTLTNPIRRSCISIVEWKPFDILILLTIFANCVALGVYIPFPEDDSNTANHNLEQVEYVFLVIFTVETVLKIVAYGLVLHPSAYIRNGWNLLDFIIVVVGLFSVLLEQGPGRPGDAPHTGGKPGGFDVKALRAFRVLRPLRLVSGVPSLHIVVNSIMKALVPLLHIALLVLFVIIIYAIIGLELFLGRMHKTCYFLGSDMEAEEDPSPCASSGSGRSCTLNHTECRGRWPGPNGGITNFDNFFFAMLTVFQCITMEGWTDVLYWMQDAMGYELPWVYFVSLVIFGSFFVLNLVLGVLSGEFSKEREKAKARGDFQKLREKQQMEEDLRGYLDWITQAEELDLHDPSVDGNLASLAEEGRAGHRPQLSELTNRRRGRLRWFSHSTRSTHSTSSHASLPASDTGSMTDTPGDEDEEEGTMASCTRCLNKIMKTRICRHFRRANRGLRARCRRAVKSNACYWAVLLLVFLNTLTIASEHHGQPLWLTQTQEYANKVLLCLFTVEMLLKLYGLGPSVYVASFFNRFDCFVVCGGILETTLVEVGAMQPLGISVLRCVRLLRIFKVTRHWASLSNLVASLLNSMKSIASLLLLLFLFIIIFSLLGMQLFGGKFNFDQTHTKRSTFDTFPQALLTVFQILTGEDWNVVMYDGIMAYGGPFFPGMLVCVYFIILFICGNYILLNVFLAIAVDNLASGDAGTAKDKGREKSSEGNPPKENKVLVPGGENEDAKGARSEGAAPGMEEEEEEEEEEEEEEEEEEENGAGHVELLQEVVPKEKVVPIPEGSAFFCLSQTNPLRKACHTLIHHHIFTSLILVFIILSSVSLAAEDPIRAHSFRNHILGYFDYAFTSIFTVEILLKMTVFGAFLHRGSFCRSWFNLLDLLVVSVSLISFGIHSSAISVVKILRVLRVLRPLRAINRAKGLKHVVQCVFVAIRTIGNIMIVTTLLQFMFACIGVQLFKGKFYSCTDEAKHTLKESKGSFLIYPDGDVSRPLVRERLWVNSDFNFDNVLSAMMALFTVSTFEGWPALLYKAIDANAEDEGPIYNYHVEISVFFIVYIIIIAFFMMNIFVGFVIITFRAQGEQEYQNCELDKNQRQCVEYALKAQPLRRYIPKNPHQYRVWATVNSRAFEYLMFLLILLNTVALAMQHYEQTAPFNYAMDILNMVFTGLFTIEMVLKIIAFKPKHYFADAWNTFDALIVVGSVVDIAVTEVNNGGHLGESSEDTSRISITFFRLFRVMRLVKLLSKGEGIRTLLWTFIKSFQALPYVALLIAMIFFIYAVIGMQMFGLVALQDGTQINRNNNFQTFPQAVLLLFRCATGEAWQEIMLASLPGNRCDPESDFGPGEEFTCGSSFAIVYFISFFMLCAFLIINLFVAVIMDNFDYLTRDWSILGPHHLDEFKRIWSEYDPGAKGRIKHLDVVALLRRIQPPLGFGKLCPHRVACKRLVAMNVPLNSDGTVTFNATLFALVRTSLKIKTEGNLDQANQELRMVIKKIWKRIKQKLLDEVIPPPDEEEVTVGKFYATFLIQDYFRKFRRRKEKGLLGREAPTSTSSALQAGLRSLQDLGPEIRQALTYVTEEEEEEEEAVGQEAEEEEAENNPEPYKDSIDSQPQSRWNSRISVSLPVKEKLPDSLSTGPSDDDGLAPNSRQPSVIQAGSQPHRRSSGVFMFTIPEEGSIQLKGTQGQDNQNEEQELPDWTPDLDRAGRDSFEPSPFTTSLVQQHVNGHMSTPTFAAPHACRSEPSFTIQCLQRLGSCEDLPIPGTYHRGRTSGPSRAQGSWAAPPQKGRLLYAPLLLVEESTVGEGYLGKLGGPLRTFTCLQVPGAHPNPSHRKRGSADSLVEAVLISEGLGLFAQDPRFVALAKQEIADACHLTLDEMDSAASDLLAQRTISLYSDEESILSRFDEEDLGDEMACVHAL
Test [4] has as its target Interleukin-12 subunit beta (Mus musculus) (UniProt P43432). As to the kind of experiment: Binding affinity to mouse interleukin-12 beta chain precursor by chromatographic analysis.
Test [5] addresses Kalirin (Rattus norvegicus) (UniProt P97924). Kind of test: Binding affinity to Huntingtin-associated protein-interacting protein in Sprague-Dawley rat heart homogenate after 15 mins by chromatographic analysis. The class given is tissue-based.
Test [6] addresses 2-oxoglutarate dehydrogenase complex component E1 (Mus musculus) (UniProt Q60597). As to the kind of experiment: Binding affinity to mouse mitochondrial 2-oxoglutarate dehydrogenase E1 component by chromatographic analysis.
Test [7] has as its target Afadin- and alpha-actinin-binding protein (Rattus norvegicus) (UniProt Q8CGZ2). As to the kind of experiment: Binding affinity to afadin- and alpha-actinin-binding protein in Sprague-Dawley rat heart homogenate after 15 mins by chromatographic analysis. The format is tissue-based.
The target of test [8] is Trace amine-associated receptor 7b (Rattus norvegicus) (UniProt Q923X8). As to the kind of experiment: Binding affinity to trace amine-associated receptor 7b in Sprague-Dawley rat heart homogenate after 15 mins by chromatographic analysis. The class given is tissue-based.
For test [9], the target named is Triosephosphate isomerase (Rattus norvegicus) (UniProt P48500). As to the kind of experiment: Binding affinity to triosephosphate isomerase in Sprague-Dawley rat heart homogenate after 15 mins by chromatographic analysis relative to rosiglitazone. The format is tissue-based.
For test [10], the target named is Creatine kinase B-type (Rattus norvegicus) (UniProt P07335). As to the kind of experiment: Binding affinity to creatine kinase B-type in Sprague-Dawley rat heart homogenate after 15 mins by chromatographic analysis. The format is tissue-based.
The target of test [11] is Citrate synthase, mitochondrial (Mus musculus) (UniProt Q9CZU6). Kind of test: Binding affinity to mouse mitochondrial citrate synthase by chromatographic analysis relative to rosiglitazone.
For test [12], the target named is Phosphoglycerate kinase 1 (Rattus norvegicus) (UniProt P16617). Kind of test: Binding affinity to Phosphoglycerate kinase 1 in Sprague-Dawley rat heart homogenate after 15 mins by chromatographic analysis. The format is tissue-based.
Test [13] addresses L-lactate dehydrogenase B chain (Rattus norvegicus) (UniProt P42123). Kind of test: Binding affinity to L-lactate dehydrogenase B chain in Sprague-Dawley rat heart homogenate after 15 mins by chromatographic analysis relative to rosiglitazone. The format is tissue-based.
The target of test [14] is Protein-tyrosine kinase 2-beta (Rattus norvegicus) (UniProt P70600). As to the kind of experiment: Binding affinity to focal adhesion kinase 2 in Sprague-Dawley rat heart homogenate after 15 mins by chromatographic analysis. The class given is tissue-based.
Chain of Protein-tyrosine kinase 2-beta (Rattus norvegicus) (P70600 whole entry): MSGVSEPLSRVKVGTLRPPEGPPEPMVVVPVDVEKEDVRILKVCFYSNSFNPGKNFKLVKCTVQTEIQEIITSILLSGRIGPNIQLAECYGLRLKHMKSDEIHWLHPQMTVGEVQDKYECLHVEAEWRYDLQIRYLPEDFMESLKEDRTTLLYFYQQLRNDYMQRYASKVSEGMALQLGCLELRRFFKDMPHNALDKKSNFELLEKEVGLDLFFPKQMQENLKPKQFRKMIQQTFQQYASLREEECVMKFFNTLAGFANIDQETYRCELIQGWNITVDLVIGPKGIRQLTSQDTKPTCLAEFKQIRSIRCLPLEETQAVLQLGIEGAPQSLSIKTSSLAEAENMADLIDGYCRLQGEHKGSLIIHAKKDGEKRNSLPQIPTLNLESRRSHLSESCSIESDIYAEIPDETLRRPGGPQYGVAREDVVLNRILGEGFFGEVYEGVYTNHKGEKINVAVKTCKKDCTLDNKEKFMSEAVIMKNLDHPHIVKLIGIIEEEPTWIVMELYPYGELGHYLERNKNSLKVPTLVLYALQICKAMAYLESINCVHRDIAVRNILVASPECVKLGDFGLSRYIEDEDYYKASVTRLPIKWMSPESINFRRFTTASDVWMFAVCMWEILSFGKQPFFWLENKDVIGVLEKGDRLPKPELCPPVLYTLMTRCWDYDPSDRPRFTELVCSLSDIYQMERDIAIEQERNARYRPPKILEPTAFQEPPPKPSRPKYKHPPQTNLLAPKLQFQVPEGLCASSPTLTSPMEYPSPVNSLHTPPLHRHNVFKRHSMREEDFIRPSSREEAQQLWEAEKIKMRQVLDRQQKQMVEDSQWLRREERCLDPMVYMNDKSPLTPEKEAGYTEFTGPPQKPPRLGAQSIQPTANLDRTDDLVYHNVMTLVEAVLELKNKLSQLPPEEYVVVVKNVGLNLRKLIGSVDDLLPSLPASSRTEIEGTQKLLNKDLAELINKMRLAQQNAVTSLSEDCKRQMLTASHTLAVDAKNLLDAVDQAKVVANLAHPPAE
The target of test [15] is Neurofibromin (Mus musculus) (UniProt Q04690). As to the kind of experiment: Binding affinity to mouse neurofibromin by chromatographic analysis relative to pioglitazone.
In test [16] the target is Aspartate aminotransferase, mitochondrial (Rattus norvegicus) (UniProt P00507). As to the kind of experiment: Binding affinity to mitochondrial aspartate aminotransferase in Sprague-Dawley rat heart homogenate after 15 mins by chromatographic analysis. The format is tissue-based.
In test [17] the target is Cyclic AMP-dependent transcription factor ATF-2 (Mus musculus) (UniProt P16951). Kind of test: Binding affinity to mouse cyclic AMP-dependent transcription factor ATF-2 by chromatographic analysis.
In test [18] the target is Creatine kinase M-type (Rattus norvegicus) (UniProt P00564). As to the kind of experiment: Binding affinity to creatine kinase M-type in Sprague-Dawley rat heart homogenate after 15 mins by chromatographic analysis relative to rosiglitazone. The format is tissue-based.
The target in test [19] is Rab11 family-interacting protein 4 (Mus musculus) (UniProt Q8BQP8). Kind of test: Binding affinity to mouse Rab11 family interacting protein 4 by chromatographic analysis relative to pioglitazone.
For test [20], the target named is T1, Cardiotrophin-like cytokine factor 1 (Mus musculus) (UniProt Q9QZM3).
T1 sequence (whole entry): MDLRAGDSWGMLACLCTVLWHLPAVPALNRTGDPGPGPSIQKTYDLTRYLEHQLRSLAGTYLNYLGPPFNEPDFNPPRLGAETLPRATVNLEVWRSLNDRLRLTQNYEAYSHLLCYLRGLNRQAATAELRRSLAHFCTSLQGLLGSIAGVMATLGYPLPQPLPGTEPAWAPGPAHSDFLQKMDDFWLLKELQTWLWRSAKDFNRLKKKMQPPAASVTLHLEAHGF
Kind of test: Binding affinity to mouse cardiotrophin-like cytokine factor 1 precursor by chromatographic analysis relative to pioglitazone.

The target of test [21] is Septin-9 (Rattus norvegicus) (UniProt Q9QZR6). As to the kind of experiment: Binding affinity to septin-9 in Sprague-Dawley rat heart homogenate after 15 mins by chromatographic analysis relative to pioglitazone. The class given is tissue-based.
Test [22] has as its target Hepatocyte nuclear factor 6 (Mus musculus) (UniProt O08755). Kind of test: Binding affinity to mouse hepatocyte nuclear factor 6 by chromatographic analysis.
Test [23] concerns the target Selenocysteine insertion sequence-binding protein 2 (Rattus norvegicus) (UniProt Q9QX72). Kind of test: Binding affinity to SECIS-binding protein 2 in Sprague-Dawley rat heart homogenate after 15 mins by chromatographic analysis relative to pioglitazone. The class given is tissue-based.
The target in test [24] is Cyclin-dependent kinase 7 (Mus musculus) (UniProt Q03147). Kind of test: Binding affinity to mouse cell division protein kinase 7 by chromatographic analysis.
The target of test [25] is Malate dehydrogenase, cytoplasmic (Mus musculus) (UniProt P14152). As to the kind of experiment: Binding affinity to mouse cytoplasmic malate dehydrogenase by chromatographic analysis.
The target of test [26] is Fanconi anemia group M protein homolog (Mus musculus) (UniProt Q8BGE5). Kind of test: Binding affinity to mouse Fanconi anemia group M protein homologue by chromatographic analysis relative to pioglitazone.
In test [27] the target is Kinesin light chain 1 (Rattus norvegicus) (UniProt P37285). As to the kind of experiment: Binding affinity to Kinesin light chain 1 in Sprague-Dawley rat heart homogenate after 15 mins by chromatographic analysis. The format is tissue-based.
The target in test [28] is Malate dehydrogenase, mitochondrial (Rattus norvegicus) (UniProt P04636). Kind of test: Binding affinity to mitochondrial malate dehydrogenase in Sprague-Dawley rat heart homogenate after 15 mins by chromatographic analysis. The class given is tissue-based.
Test [29] concerns the target Prolactin-3B1 (Rattus norvegicus) (UniProt P09321). Kind of test: Binding affinity to chorionic somatomammotropin hormone 2 precursor in Sprague-Dawley rat heart homogenate after 15 mins by chromatographic analysis relative to pioglitazone. The format is tissue-based.

Chain of L-lactate dehydrogenase B chain (Rattus norvegicus) (P42123 whole entry): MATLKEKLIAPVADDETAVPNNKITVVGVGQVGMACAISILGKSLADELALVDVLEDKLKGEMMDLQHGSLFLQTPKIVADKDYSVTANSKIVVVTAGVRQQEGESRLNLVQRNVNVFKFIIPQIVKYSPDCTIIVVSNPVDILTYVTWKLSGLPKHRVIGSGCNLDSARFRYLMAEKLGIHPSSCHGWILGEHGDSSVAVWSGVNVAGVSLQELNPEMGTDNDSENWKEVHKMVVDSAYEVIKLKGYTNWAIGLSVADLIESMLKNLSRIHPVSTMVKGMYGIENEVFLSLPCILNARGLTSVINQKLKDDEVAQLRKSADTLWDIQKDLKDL
Chain of Afadin- and alpha-actinin-binding protein (Rattus norvegicus) (Q8CGZ2 whole entry): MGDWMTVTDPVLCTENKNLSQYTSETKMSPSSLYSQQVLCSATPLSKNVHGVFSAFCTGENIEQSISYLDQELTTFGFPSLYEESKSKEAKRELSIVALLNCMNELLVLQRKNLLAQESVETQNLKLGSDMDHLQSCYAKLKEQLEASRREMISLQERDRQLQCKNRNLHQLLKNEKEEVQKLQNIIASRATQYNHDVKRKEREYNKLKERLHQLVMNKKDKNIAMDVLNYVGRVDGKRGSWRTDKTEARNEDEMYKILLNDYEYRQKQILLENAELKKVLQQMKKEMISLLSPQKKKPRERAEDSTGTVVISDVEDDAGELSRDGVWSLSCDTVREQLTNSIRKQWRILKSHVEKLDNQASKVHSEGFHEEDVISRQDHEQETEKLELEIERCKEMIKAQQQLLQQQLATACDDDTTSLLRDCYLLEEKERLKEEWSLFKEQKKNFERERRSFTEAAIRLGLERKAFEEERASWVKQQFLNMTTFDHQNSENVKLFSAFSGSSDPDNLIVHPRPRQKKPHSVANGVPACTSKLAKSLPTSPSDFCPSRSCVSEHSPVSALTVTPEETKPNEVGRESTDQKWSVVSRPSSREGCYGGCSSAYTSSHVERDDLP

Take `CCc1ccc(CCOc2ccc(CC3SC(=O)NC3=O)cc2)nc1` (configuration not stated): the outcome in test [1], in test [2], in test [3], in test [4], in test [5] and in [6] was Active. Moreover, the result in [7], in [8], in [10], in [12], in test [13] and in [14] was Active. Moreover, the outcome in test [15] and in test [16] was Active. Besides, the fold change (FC) in test [9] came out at 6.46; in test [11], 5.52; in test [13] it was 2.26; in test [17], 1.64; in test [18], 6.16.

With `CN(CCOc1ccc(CC2SC(=O)NC2=O)cc1)c1ccccn1` (configuration not stated), the fold change (FC) is 3.74 in [19]; 2.56 in test [20]; 2.08 in test [21]; 3.22 in [23]; 2.94 in [26]; 3.1 in test [15]. This compound gave a fold change (FC) in test [29] of 3.92. The result in test [2], in test [3], in [5], in test [22], in test [24] and in [7] was Active. The result in test [25], in test [13], in test [27] and in test [28] was Active. The result in [14] was inactive.
